Source: patent publication US9132200B2, “Oligomer-calcium channel blocker conjugates” (NEKTAR THERAPEUTICS, priority 2007, dated 2015)
Read-outs that look alike come from different tables or passages of the source.

Biological target: calcium channel (Rattus norvegicus, UniProt P22002)
Assay: Calcium channel binding assay similar to Example 3, 3[H]-diltiazem as competing radioligand
Description: […] […] The reactions were carried out in 50 mM TRIS-HCl (pH 7.7) at 25° C. for 60 minutes. The reaction was terminated by rapid vacuum filtration onto glass fiber filters. […] Molecular Pharmacology 25, 235-241 (1984)).

[1] = Binding Assay No. 2 (Table 2), 3[H]-diltiazem radioligand

Sequence of calcium channel (P22002 whole entry): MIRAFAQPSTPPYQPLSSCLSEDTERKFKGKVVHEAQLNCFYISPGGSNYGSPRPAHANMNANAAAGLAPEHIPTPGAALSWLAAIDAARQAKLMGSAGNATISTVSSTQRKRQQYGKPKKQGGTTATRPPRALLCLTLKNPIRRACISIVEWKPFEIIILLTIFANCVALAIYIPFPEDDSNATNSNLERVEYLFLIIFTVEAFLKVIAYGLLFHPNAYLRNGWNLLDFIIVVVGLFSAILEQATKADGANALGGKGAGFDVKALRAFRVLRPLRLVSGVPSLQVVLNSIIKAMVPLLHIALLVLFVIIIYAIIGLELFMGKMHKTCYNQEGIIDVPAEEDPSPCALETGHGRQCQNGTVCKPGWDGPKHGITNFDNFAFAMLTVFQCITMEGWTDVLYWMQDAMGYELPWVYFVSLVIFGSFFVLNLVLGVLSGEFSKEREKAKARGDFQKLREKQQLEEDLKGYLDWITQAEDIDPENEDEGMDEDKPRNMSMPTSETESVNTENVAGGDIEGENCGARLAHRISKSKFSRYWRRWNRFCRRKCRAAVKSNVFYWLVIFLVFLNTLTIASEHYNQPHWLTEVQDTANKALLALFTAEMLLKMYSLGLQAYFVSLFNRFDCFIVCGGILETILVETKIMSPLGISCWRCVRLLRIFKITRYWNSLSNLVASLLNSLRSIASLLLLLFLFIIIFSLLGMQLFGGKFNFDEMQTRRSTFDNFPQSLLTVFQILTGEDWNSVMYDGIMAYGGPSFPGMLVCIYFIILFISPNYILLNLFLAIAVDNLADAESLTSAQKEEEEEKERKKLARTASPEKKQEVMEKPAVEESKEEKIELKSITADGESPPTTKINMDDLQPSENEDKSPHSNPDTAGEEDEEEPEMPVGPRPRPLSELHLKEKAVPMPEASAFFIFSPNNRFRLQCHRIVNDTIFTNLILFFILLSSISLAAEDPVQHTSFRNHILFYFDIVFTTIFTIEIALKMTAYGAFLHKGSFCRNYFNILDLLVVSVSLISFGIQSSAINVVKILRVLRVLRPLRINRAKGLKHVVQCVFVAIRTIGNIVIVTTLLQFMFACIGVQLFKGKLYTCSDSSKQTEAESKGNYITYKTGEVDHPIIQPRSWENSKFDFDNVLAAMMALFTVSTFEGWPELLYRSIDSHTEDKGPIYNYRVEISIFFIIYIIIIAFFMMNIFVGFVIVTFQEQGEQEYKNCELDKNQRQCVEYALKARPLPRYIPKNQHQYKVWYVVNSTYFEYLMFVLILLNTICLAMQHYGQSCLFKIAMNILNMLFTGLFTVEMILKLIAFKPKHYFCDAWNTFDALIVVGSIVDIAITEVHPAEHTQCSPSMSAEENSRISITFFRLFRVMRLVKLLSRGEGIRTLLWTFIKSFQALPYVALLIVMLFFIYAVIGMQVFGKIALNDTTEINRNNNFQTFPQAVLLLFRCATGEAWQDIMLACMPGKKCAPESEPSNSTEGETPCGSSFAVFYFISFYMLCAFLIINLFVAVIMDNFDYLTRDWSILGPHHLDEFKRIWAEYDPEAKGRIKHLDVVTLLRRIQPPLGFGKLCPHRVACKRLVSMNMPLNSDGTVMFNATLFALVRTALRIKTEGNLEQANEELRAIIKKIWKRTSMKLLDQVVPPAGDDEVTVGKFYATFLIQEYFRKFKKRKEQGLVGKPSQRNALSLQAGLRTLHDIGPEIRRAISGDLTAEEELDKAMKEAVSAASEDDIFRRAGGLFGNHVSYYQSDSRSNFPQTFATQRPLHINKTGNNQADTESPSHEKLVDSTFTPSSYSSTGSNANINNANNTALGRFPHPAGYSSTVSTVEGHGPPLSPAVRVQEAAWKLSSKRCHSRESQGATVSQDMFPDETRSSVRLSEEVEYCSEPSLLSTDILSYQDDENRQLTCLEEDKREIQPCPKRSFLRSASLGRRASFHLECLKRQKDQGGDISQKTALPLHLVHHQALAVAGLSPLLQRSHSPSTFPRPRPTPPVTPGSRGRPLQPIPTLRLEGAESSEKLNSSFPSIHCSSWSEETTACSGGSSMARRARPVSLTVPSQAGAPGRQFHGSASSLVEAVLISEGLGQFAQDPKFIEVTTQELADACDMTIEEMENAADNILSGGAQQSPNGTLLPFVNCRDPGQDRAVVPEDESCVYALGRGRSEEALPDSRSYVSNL

Row | Structure (SMILES) | IC50 [1] [nM] | IC50 [nM]
1 | COCCOCCOCCOc1ccc(CCN(C)CCCC(C#N)(c2ccc(OC)c(OC)c2)C(C)C)cc1OC (stereo not shown) [mPEG3-O-Verapamil, O-mPEG3-verapamil] | 541 | –
2 | COCCOCCOCCOCCOCCOCCOCCOc1ccc(CCN(C)CCCC(C#N)(c2ccc(OC)c(OC)c2)C(C)C)cc1OC (stereo not shown) [mPEG7-O-Verapamil, O-mPEG7-verapamil] | 1130 | –
3 | COCCOCCOCCOCCOCCOc1ccc(CCN(C)CCCC(C#N)(c2ccc(OC)c(OC)c2)C(C)C)cc1OC (stereo not shown) [mPEG5-O-Verapamil, O-mPEG5-verapamil] | 852 | –
4 | COCCOCCOCCOCCOCCOCCOc1ccc(CCN(C)CCCC(C#N)(c2ccc(OC)c(OC)c2)C(C)C)cc1OC (stereo not shown) [mPEG6-O-Verapamil, O-mPEG6-verapamil] | – | 349
